Measurements reported in ChEMBL document CHEMBL2311352, “Discovery of 4-phenyl-2-phenylaminopyridine based TNIK inhibitors” (Bioorg Med Chem Lett, 2013).
In brackets after ≈: the same amount, converted by molar mass.

What was measured:
[1] = target: T1, TRAF2 and NCK-interacting protein kinase (Homo sapiens, UniProt Q9UKE5); assay: Inhibition of TNIK-mediated TCF4/[…] transcription in human HCT116 cells by beta-lactamase reporter gene assay; format: cell-based, HCT-116
Target sequence in this assay (Q9UKE5 whole entry): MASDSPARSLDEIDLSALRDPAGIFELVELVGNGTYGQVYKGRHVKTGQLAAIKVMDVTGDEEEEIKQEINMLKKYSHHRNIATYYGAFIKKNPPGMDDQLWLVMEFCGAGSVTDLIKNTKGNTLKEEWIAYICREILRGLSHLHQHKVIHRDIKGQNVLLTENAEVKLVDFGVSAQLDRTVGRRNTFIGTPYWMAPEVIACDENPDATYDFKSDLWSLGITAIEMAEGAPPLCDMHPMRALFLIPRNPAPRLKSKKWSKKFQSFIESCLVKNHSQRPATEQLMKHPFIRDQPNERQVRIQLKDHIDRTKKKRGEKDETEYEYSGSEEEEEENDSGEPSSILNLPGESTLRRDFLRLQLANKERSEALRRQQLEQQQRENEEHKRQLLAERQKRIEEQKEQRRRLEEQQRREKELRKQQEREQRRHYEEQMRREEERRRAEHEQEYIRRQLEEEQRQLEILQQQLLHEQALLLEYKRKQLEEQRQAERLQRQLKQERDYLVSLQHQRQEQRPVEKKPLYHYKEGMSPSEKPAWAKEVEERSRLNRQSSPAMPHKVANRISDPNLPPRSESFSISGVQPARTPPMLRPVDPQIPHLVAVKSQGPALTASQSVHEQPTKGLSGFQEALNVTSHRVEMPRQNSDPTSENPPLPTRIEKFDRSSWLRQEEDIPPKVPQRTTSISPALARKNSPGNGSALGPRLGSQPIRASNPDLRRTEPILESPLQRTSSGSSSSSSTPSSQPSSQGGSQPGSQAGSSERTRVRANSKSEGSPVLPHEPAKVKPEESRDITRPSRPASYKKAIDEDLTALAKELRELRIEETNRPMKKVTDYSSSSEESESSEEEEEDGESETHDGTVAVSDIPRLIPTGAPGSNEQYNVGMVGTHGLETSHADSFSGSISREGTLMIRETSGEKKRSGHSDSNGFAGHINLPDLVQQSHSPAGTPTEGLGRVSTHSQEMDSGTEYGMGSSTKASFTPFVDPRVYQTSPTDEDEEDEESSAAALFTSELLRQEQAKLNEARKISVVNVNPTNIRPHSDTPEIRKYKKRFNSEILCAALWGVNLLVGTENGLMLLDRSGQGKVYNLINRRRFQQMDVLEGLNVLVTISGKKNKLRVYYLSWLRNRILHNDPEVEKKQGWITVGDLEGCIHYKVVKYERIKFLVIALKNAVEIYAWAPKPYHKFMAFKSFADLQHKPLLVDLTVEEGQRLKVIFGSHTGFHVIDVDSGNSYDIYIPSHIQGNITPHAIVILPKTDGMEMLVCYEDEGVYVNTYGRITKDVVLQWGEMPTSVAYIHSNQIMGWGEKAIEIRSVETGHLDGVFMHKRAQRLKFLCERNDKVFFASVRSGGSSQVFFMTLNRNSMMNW

[2] = target: T1, TRAF2 and NCK-interacting protein kinase; assay: Inhibition of TNIK (unknown origin) by ADP glo luminescent assay
Target sequence in this assay (Q9UKE5 whole entry): as above

[3] = target: T1, TRAF2 and NCK-interacting protein kinase; assay: Ratio of IC50 for TNIK-mediated TCF4/[…] transcription in human HCT116 cells to IC50 for TNIK (unknown origin); format: cell-based; conditions: HCT-116
Target sequence in this assay (Q9UKE5 whole entry, looked up): as the sequence (Q9UKE5 whole entry) above

[4] = target: Voltage-gated inwardly rectifying potassium channel KCNH2 (Homo sapiens, UniProt Q12809); assay: Inhibition of human ERG by patch clamp assay
Chain of Voltage-gated inwardly rectifying potassium channel KCNH2 (Q12809 whole entry): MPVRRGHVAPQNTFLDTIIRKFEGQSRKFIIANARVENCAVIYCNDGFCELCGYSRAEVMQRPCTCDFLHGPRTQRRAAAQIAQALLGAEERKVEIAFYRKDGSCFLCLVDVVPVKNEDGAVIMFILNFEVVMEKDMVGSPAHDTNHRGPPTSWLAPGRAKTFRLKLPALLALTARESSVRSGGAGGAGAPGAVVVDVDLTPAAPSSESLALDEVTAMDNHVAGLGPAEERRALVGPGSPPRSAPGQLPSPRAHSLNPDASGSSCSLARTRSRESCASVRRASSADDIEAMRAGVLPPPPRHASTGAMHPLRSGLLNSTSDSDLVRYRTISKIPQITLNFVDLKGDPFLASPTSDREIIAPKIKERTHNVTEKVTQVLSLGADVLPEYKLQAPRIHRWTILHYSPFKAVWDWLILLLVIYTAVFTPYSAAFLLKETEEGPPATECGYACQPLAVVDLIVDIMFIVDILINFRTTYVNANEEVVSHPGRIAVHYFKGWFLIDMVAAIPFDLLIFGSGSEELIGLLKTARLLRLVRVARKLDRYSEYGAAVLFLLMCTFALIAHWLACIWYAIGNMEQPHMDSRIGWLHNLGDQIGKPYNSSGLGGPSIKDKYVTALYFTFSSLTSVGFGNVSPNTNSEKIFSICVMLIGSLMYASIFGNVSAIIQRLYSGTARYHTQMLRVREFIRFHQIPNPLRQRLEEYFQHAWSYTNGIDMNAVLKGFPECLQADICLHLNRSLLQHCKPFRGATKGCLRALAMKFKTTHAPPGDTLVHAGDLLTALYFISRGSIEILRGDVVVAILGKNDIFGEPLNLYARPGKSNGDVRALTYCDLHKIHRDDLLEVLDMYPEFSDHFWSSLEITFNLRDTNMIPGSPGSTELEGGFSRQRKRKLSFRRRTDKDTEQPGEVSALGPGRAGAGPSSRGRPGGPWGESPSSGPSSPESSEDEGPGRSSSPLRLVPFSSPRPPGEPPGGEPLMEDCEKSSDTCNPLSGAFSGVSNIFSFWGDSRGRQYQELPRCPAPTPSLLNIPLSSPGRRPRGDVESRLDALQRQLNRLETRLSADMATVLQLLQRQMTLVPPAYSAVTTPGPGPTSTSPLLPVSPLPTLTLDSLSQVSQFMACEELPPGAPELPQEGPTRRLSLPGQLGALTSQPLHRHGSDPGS

[5] = Inhibition of CBP binding to […] in human SW480 cells by immunoblot analysis; format: cell-based
[6] = target: Receptor-type tyrosine-protein kinase FLT3 (Homo sapiens) (UniProt P36888); assay: Inhibition of FLT3 (unknown origin) at 1 uM
Chain of Receptor-type tyrosine-protein kinase FLT3 (Homo sapiens) (P36888 whole entry): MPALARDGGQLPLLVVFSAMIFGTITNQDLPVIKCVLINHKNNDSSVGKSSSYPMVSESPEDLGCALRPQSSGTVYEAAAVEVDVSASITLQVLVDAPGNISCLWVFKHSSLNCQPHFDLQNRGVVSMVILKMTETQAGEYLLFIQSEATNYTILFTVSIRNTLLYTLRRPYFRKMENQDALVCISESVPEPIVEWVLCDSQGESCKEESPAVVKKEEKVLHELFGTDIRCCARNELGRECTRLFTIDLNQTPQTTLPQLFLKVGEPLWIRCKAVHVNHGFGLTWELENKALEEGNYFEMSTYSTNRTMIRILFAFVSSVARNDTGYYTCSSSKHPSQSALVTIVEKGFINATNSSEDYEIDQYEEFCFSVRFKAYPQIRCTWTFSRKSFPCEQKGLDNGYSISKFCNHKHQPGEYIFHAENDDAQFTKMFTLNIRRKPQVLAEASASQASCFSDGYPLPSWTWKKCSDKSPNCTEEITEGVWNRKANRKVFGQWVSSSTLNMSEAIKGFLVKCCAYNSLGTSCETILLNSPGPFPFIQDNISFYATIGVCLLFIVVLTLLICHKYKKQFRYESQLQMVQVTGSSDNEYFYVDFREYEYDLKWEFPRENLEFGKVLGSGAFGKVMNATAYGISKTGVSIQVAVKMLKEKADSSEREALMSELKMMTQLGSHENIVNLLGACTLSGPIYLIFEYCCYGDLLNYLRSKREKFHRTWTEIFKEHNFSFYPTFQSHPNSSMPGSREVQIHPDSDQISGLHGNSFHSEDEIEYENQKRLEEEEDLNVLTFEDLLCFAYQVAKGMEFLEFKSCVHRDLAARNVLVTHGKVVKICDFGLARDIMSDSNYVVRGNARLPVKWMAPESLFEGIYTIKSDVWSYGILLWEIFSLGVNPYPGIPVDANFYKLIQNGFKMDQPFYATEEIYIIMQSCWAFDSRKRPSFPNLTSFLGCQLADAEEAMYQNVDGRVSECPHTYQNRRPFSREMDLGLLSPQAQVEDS

[7] = Apparent permeability across apical to basolateral side in human Caco2 cells; format: ADME, cell-based; conditions: Caco-2
[8] = target: Serine/threonine-protein kinase Chk1 (Homo sapiens) (UniProt O14757); assay: Inhibition of CHK1 (unknown origin) at 1 uM
[9] = target: CDK6/cyclin D1 (Homo sapiens) (UniProt P24385+Q00534); assay: Inhibition of CDK6/Cyclin D1 (unknown origin) at 1 uM; format: protein-complex assay
[10] = Solubility of the compound in phosphate buffer at pH 7.4; format: physicochemical
[11] = target: Macrophage colony-stimulating factor 1 receptor (Homo sapiens) (UniProt P07333); assay: Inhibition of FMS (unknown origin) at 1 uM
Chain of Macrophage colony-stimulating factor 1 receptor (Homo sapiens) (P07333 whole entry): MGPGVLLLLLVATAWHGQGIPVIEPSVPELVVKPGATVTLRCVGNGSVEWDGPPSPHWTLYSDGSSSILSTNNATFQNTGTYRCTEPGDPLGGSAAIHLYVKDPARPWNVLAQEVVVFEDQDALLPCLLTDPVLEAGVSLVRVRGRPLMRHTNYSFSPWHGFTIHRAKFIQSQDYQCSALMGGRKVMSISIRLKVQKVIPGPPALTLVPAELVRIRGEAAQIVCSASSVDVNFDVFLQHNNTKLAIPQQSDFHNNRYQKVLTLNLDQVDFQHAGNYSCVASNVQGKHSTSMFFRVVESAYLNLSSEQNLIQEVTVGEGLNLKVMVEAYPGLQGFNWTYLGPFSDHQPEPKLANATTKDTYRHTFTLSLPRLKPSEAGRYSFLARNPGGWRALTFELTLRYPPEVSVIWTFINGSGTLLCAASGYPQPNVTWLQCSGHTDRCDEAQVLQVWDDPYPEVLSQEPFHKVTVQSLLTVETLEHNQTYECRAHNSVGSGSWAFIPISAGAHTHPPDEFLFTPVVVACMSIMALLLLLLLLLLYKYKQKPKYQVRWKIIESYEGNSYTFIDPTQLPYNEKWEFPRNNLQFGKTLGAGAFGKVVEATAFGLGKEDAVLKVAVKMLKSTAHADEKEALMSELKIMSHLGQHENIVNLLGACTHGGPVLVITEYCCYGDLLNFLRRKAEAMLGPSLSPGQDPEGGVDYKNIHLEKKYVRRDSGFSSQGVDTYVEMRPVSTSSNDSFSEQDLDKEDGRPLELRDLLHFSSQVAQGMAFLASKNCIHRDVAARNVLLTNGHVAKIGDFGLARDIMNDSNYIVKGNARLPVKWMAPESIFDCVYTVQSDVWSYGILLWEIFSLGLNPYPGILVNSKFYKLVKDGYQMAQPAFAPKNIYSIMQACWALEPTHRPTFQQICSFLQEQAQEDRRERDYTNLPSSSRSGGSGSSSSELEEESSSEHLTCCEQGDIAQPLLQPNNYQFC

[12] = target: Mitogen-activated protein kinase kinase kinase kinase 4 (Homo sapiens) (UniProt O95819); conditions: 1 uM
[13] = Apparent permeability across basolateral to apical side in human Caco2 cells; format: ADME, cell-based; conditions: Caco-2
[14] = target: Inhibitor of nuclear factor kappa-B kinase subunit epsilon (Homo sapiens) (UniProt Q14164); assay: Inhibition of IKKepsilon (unknown origin) at 1 uM
[15] = target: T1, TRAF2 and NCK-interacting protein kinase; conditions: 1 uM
Target sequence in this assay (Q9UKE5 whole entry, looked up): as the sequence (Q9UKE5 whole entry) above

Caco-2 = assay: Ratio of apparent permeability across basolateral to apical side over apical to basolateral side in human Caco2 cells; format: ADME, cell-based
[16] = target: T1, TRAF2 and NCK-interacting protein kinase; assay: Competitive binding affinity to TNIK (unknown origin) in presence of ATP
Target sequence in this assay (Q9UKE5 whole entry): as above

DLD-1 = assay: Cytotoxicity against wnt-activated human DLD1 cells assessed as cell viability; format: functional, cell-based
HCT-116 = assay: Cytotoxicity against wnt-activated human HCT116 cells assessed as cell viability; format: functional, cell-based
HEK293 = assay: Cytotoxicity against wnt-inactivated human HEK293 cells assessed as cell viability; format: functional, cell-based
HeLa = assay: Cytotoxicity against wnt-inactivated human HeLa cells assessed as cell viability; format: functional, cell-based

COc1ccc(C#N)cc1-c1ccnc(Nc2ccc(N3CCN(C)CC3)cc2)c1
IC50 [1]: > 30 µM | IC50 [2]: 0.005 µM | Ratio IC50 [3]: > 6000

COc1cc(Nc2cc(-c3cccc(C#N)c3)ccn2)ccc1N1CCOCC1
IC50 [4]: 7.7 µM | IC50 [2]: 0.055 µM

COc1ccc(Cl)cc1-c1ccnc(Nc2ccc(N3CCN(C)CC3)c(OC)c2)c1
IC50 [1]: 7.9 µM | IC50 [2]: 0.004 µM | Ratio IC50 [3]: 2000

COc1cc(Nc2cc(-c3ccc(C#N)cc3)ccn2)ccc1N1CCOCC1
IC50 [2]: > 1 µM

COc1ccc(C#N)cc1-c1ccnc(Nc2ccc(N3CCOCC3)cc2)c1
IC50 [1]: 26 µM | IC50 [2]: 0.011 µM | Ratio IC50 [3]: 2400

O=C1[C@H](Cc2ccc(O)cc2)N2C(=O)CCN(C(=O)NCc3ccccc3)[C@H]2CN1Cc1cccc2ccccc12
IC50 [5]: 1.3 µM

COc1cc(Nc2cc(-c3cccc(C#N)c3)ccn2)ccc1N1CCN(C)CC1
inhibition [6]: 50% | Papp A→B [7]: 160 nm/s | inhibition [8]: > 50% | inhibition [9]: > 50% | IC50 [1]: 27 µM | solubility [10]: 78 µM (≈ 31.2 µg/mL) | IC50 [2]: 0.006 µM | inhibition [11]: 50% | inhibition [12]: > 95% | Papp B→A [13]: 142 nm/s | inhibition [14]: > 80% | inhibition [15]: > 95%

COc1cc(Nc2cc(-c3cccc(CC#N)c3)ccn2)ccc1N1CCN(C)CC1
Papp A→B [7]: 205 nm/s | solubility [10]: 94 µM (≈ 38.9 µg/mL) | IC50 [2]: 0.29 µM | Ratio (Caco-2): 0.93 | Papp B→A [13]: 191 nm/s | Kd [16]: 0.22 µM

COc1cc(C#N)cc(-c2ccnc(Nc3ccc(N4CCOCC4)c(OC)c3)c2)c1
IC50 [2]: 0.063 µM

COc1ccc(C(F)(F)F)cc1-c1ccnc(Nc2ccc(N3CCOCC3)c(OC)c2)c1
IC50 [2]: 0.275 µM

COc1ccc(C#N)cc1-c1ccnc(Nc2ccc(N3CCC(N(C)C)CC3)c(F)c2)c1
IC50 [1]: 3.1 µM | IC50 (DLD-1): 0.33 µM | IC50 [2]: 0.011 µM | IC50 (HCT-116): 0.26 µM | Ratio IC50 [3]: 280 | IC50 (HEK293): 0.043 µM | IC50 (HeLa): 1.2 µM

COc1ccc(C#N)cc1-c1ccnc(Nc2ccc(N3CCOCC3)c(OC)c2)c1
IC50 (DLD-1): 5.8 µM | IC50 (HCT-116): 2.3 µM | IC50 (HEK293): 0.105 µM | IC50 (HeLa): 6.8 µM

COc1ccc(Cl)cc1-c1ccnc(Nc2ccc(N3CCOCC3)c(OC)c2)c1
IC50 [4]: 20 µM | IC50 [2]: 0.041 µM

COc1ccc(Cl)cc1-c1ccnc(Nc2ccc(CCN3CCOCC3)cc2)c1
IC50 (DLD-1): 1.1 µM | IC50 [2]: 0.02 µM | IC50 (HCT-116): 1.7 µM | IC50 (HEK293): 0.059 µM | IC50 (HeLa): 3.7 µM

COc1ccc(F)cc1-c1ccnc(Nc2ccc(N3CCOCC3)c(OC)c2)c1
IC50 [2]: 0.118 µM

COc1ccc(C#N)cc1-c1ccnc(Nc2ccc(N3CCN(C)CC3)c(OC)c2)c1
IC50 [2]: 0.003 µM
